This note sets out measurements from the supplement of paper PMC12137928.

Structures can show the parent of a compound that is named as a salt. Bounds are passed on as bounds.

The subject of the assay is HCT116. As to conditions: 72 h. The procedure, abridged:
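Luminescence was read with CellTiter-Glo in HCT116 cells seeded at 250 per well in 1536-well plates. Signals were scaled between vehicle at 0% and positive control at -100%, then pattern-corrected. IC50 and maximal efficacy were obtained by fitting a four-parameter Hill equation.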

For the compound `O=c1[nH]c2ccccc2n1CCN1CCN(c2cccc(C(F)(F)F)c2)CC1` [FLIBANSERIN], the IC50 cell viability (ICRF193 0 nM) is > 45.8 µM and the IC50 cell viability (ICRF193 200 nM) is > 45.8 µM.

Turning to `CCCCCCCCCC(=O)OCCN1CCN(CC/C=C2\c3ccccc3Sc3ccc(C(F)(F)F)cc32)CC1` [FLUPENTIXOL DECANOATE], the IC50 cell viability was > 45.8 µM (ICRF193 0 nM) and > 45.8 µM (ICRF193 200 nM).

For `C[C@@H]1O[C@@H]1P(=O)(O)O` [FOSFOMYCIN], the IC50 cell viability was > 45.8 µM (ICRF193 0 nM) and > 45.8 µM (ICRF193 200 nM).

For `Cc1[nH]cnc1C[C@H]1CCc2c(C)c3ccccc3n2C1=O` [Fabesetron], the IC50 cell viability reads like this: (ICRF193 0 nM) > 45.8 µM; (ICRF193 200 nM) > 45.8 µM.

In the case of `CC(=O)OCC(CCn1cnc2cnc(N)nc21)COC(C)=O` [Famciclovir], the IC50 cell viability was > 45.8 µM (ICRF193 0 nM) and > 45.8 µM (ICRF193 200 nM).

As for `NC(N)=Nc1nc(CSCC/C(N)=N/S(N)(=O)=O)cs1` [Famotidine], the IC50 cell viability was > 45.8 µM (ICRF193 0 nM) and > 45.8 µM (ICRF193 200 nM).

Regarding `COP(=S)(OC)Oc1ccc(S(=O)(=O)N(C)C)cc1` [Famphur], the IC50 cell viability reads like this: (ICRF193 0 nM) > 45.8 µM; (ICRF193 200 nM) > 45.8 µM.

Consider `O=C1CC[C@H](C(=O)N2CCCCC2)N1` [Fasoracetam], for which the IC50 cell viability reads like this: (ICRF193 0 nM) > 45.8 µM; (ICRF193 200 nM) > 45.8 µM.

Take `O=S(=O)(c1cccc2cnccc12)N1CCCNCC1` [Fasudil]: the IC50 cell viability (ICRF193 0 nM) is > 45.8 µM and the IC50 cell viability (ICRF193 200 nM) was > 45.8 µM.

Turning to `NC(=O)c1nc(F)cnc1O` [Favipiravir], the IC50 cell viability runs as follows: (ICRF193 0 nM) > 45.8 µM; (ICRF193 200 nM) > 45.8 µM.

As for `COCC(=O)Nc1cc(Sc2ccccc2)ccc1N=C(NC(=O)OC)NC(=O)OC` [Febantel], the IC50 cell viability is, setting by setting: (ICRF193 0 nM) > 45.8 µM; (ICRF193 200 nM) > 45.8 µM.

As to `Cc1nc(-c2ccc(OCC(C)C)c(C#N)c2)sc1C(=O)O` [Febuxostat], the IC50 cell viability is > 45.8 µM (ICRF193 0 nM) and > 45.8 µM (ICRF193 200 nM).

Consider `NC(=O)OCC(COC(N)=O)c1ccccc1` [Felbamate], for which the IC50 cell viability is, setting by setting: (ICRF193 0 nM) > 45.8 µM; (ICRF193 200 nM) > 45.8 µM.

With `NCCCC[C@H](NC(=O)[C@@H]1CCCN1C(=O)[C@@H]1CSSC[C@H](N)C(=O)N[C@@H](Cc2ccccc2)C(=O)N[C@@H](Cc2ccccc2)C(=O)N[C@@H](CCC(N)=O)C(=O)N[C@@H](CC(N)=O)C(=O)N1)C(=O)NCC(N)=O` [Felypressin], the IC50 cell viability is > 45.8 µM (ICRF193 0 nM) and > 45.8 µM (ICRF193 200 nM).

Consider `COC(=O)Nc1nc2cc(Sc3ccccc3)ccc2[nH]1` [Fenbendazole], for which the IC50 cell viability was > 45.8 µM (ICRF193 0 nM) and > 45.8 µM (ICRF193 200 nM).

Take `O=C(O)CCC(=O)c1ccc(-c2ccccc2)cc1` [Fenbufen]: the IC50 cell viability by setting is: (ICRF193 0 nM) > 45.8 µM; (ICRF193 200 nM) > 45.8 µM.

With `CCC(C(=O)OCCN1CCOC(c2ccccc2)C1C)c1ccccc1` (stereo not drawn) [Fenbutrazate], the IC50 cell viability reads like this: (ICRF193 0 nM) > 45.8 µM; (ICRF193 200 nM) > 45.8 µM.

Consider `COP(=S)(OC)Oc1cc(Cl)c(Cl)cc1Cl` [Fenchlorphos], for which the IC50 cell viability (ICRF193 0 nM) is > 45.8 µM and the IC50 cell viability (ICRF193 200 nM) was > 45.8 µM.

Regarding `CCCCC(O)c1ccccc1` (stereo not drawn) [Fenipentol], the IC50 cell viability (ICRF193 0 nM) is > 45.8 µM and the IC50 cell viability (ICRF193 200 nM) was > 45.8 µM.

Take `CC(C)OC(=O)C(C)(C)Oc1ccc(C(=O)c2ccc(Cl)cc2)cc1` [Fenofibrate]: the IC50 cell viability was > 45.8 µM (ICRF193 0 nM) and > 45.8 µM (ICRF193 200 nM).

As to `Oc1ccc(C2CNCCc3c2cc(O)c(O)c3Cl)cc1` (stereo not drawn) [Fenoldopam], the IC50 cell viability (ICRF193 0 nM) was > 45.8 µM and the IC50 cell viability (ICRF193 200 nM) is > 45.8 µM.

On to `CC(C(=O)O)c1cccc(Oc2ccccc2)c1` (stereo not drawn) [Fenoprofen calcium salt dihydrate], for which the IC50 cell viability is, setting by setting: (ICRF193 0 nM) > 45.8 µM; (ICRF193 200 nM) > 45.8 µM.

Regarding `CC(Cc1ccc(O)cc1)NCC(O)c1cc(O)cc(O)c1` (stereo not drawn) [Fenoterol hydrobromide], the IC50 cell viability runs as follows: (ICRF193 0 nM) > 45.8 µM; (ICRF193 200 nM) > 45.8 µM.

Regarding `COP(=S)(OC)Oc1ccc(SC)c(C)c1` [Fenthion], the IC50 cell viability was > 45.8 µM (ICRF193 0 nM) and > 45.8 µM (ICRF193 200 nM).

Take `O=C(O)Cc1sc(-c2ccccc2)nc1-c1ccc(Cl)cc1` [Fentiazac]: the IC50 cell viability reads like this: (ICRF193 0 nM) > 45.8 µM; (ICRF193 200 nM) > 45.8 µM.

Take `CC(C)=CCC1C(=O)N(c2ccccc2)N(c2ccccc2)C1=O` [Feprazone]: the IC50 cell viability (ICRF193 0 nM) is > 45.8 µM and the IC50 cell viability (ICRF193 200 nM) was > 45.8 µM.

On to `CC(C)(C(=O)O)c1ccc(C(O)CCCN2CCC(C(O)(c3ccccc3)c3ccccc3)CC2)cc1` (stereo not drawn) [Fexofenadine hydrochloride], for which the IC50 cell viability by setting is: (ICRF193 0 nM) > 45.8 µM; (ICRF193 200 nM) > 45.8 µM.

As for `Cc1ccc(/C=N/n2c(-c3ccccc3)csc2=S)cc1` [Fezatione], the IC50 cell viability was > 45.8 µM (ICRF193 0 nM) and > 45.8 µM (ICRF193 200 nM).

On to `NC(=O)[C@@H]1C[C@]2(NC(=O)NC2=O)c2cc(F)ccc2O1` [Fidarestat], for which the IC50 cell viability is > 45.8 µM (ICRF193 0 nM) and > 45.8 µM (ICRF193 200 nM).
